Experimental findings from patent US10961256B2, “PRMT5 inhibitors” (priority 2016, dated 2021) are described below.

Assay [1] deals with Full-length PRMT5 enzyme co-expressed with His6-MEP50 (Homo sapiens (Human), UniProt O14744). Nature of the assay: PRMT5 Biochemical Assay. Conditions: histone H4 derived peptide substrate, Transcreener EPIGEN methyltransferase assay, 4 hours at 37 degree Celsius. How it is done:
Compounds of the invention may be tested for in vitro activity in the following assay: A histone H4 derived peptide is used as substrate (amino acid sequence: […]NH2). Full-length PRMT5 enzyme (NCBI Reference sequence NP_006100.2) was co-expressed with His6-MEP50 in insect cells and purified via Nickel immobilized metal affinity and gel filtration chromatography (“the enzyme”).
The 6 μL reactions are run in Greiner brand black 384-well low volume assay plates. All reactions contained assay buffer (phosphate buffered saline, 0.01% (v/v) Tween-20, 0.01% (w/v) albumin from chicken egg white, 1 mM Dithiothreitol, 1 μM peptide substrate, 1 μM S-Adenosyl methionine, and 15 ng/reaction enzyme, with the enzyme being omitted from negative control reactions. Compounds were added in a volume of 100 nL from dilution series prepared in DMSO, positive and negative control reactions receiving the same volume DMSO without compound. The plates were sealed with adhesive seals and incubated for 4 hours at 37 degree Celsius. Reaction progress was measured using the Transcreener™ EPIGEN methyltransferase assay (BellBrook Labs, Madison, Wis.) as recommended by the manufacturer. To each reaction 2 μL detection mix were added, containing coupling enzymes, fluorescence polarisation tracer, and AMP antibody. Plates were incubated for 90 minutes before being read on a PerkinElmer EnVision™ plate reader in fluorescence polarisation mode.

The subject of assay [2] is symmetrical dimethylation of arginine (Di-Methyl Histone H4 Arginine 3) in TE11 cells. In words: cells. Conditions: Homo sapiens, TE-11, 72 h. How it is done:
Compounds of the invention may be tested for potency to inhibit symmetrical dimethylation of arginine in the following assay:
The cell line TE11 was seeded at a density of 6,000 cells per well in 96 well optical quality tissue culture plates in DME medium and 10% foetal bovine serum, and allowed to adhere for 5 hours under standard culture conditions (37 degree Celsius, 5% CO2). […] After incubation for 72 hours, the cells were fixed with 3.7% formaldehyde in PBS for 30 minutes at room temperature, washed with phosphate buffer saline and blocked with Odyssey blocking buffer (LI-COR, Lincoln, Nebr.). Rabbit anti-Di-Methyl Histone H4 Arginine 3 specific antibody (Epigentek) in Odyssey blocking buffer was added and incubated for 14 hours at 4 degree Celsius.

pIC50: −log10 of the molar value.

Full-length PRMT5 enzyme co-expressed with His6-MEP50, sequence (O14744 whole entry): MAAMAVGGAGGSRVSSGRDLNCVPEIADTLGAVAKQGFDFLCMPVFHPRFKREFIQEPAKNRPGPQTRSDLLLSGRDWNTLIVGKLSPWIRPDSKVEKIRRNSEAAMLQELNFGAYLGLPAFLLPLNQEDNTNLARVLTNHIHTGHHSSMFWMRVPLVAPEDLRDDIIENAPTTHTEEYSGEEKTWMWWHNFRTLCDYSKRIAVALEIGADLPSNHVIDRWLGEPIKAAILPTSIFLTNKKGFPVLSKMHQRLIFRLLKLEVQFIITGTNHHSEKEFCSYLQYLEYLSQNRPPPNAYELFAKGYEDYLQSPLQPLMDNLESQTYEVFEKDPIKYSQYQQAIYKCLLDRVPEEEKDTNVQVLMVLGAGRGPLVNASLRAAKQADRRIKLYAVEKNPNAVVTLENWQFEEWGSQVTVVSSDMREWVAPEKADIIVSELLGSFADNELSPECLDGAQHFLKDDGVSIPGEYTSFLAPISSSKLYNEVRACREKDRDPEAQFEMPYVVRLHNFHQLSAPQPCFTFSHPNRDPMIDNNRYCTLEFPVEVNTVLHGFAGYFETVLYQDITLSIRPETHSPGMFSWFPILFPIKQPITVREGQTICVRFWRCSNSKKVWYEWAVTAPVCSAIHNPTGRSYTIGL
Full-length PRMT5 enzyme co-expressed with His6-MEP50, sequence (Q9BQA1 whole entry partner): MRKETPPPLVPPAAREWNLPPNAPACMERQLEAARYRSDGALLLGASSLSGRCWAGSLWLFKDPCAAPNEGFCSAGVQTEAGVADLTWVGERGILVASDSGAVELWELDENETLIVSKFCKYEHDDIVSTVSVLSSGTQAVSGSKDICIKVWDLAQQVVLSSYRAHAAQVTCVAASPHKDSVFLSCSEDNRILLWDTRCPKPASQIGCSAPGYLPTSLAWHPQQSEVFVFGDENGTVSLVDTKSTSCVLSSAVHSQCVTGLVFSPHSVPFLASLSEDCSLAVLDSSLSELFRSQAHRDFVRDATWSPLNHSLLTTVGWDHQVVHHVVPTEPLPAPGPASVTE

A word on the pIC50: it is −log10 of the IC50, conventionally taken in molar units. High values mean a low IC50, low ones a high IC50. As to `CCc1nn(C[C@@H](O)CNC2Cc3ccccc3C2)c(=O)c2ccc(C(=O)N3C4CCC3COC4)cc12` [Compound 3, 6-(3-Oxa-8-azabicyclo[3.2.1]octane-8-carbonyl)-2-((S)-3-((2,3-dihydro-1H-Inden-2-yl)amino)-2-hydroxypropyl)-4-ethylphthalazin-1(2H)-one], the figures for the negative logarithm of the IC50 (pIC50) in assay [1] and in assay [2] were 7.52 and 8.72, respectively. Regarding `Cc1nn(C[C@@H](O)CNC2Cc3ccccc3C2)c(=O)c2ccc(C(=O)N3C4CCC3COC4)cc12` [Compound 2, 6-(3-Oxa-8-azabicyclo[3.2.1]octane-8-carbonyl)-2-((S)-3-((2,3-dihydro-1H-Inden-2-yl)amino)-2-hydroxypropyl)-4-methylphthalazin-1(2H)-one], the figures for the negative-log IC50 (pIC50) in assay [1] and in assay [2] were 6.77 and 7.74, respectively. `Cc1nn(CC(O)CNC2Cc3ccccc3C2)c(=O)c2ccccc12` (centres unmarked) [Compound 1, 2-(3-((2,3-Dihydro-1H-inden-2-yl)amino)-2-hydroxypropyl)-4-methylphthalazin-1(2H)-one]: the pIC50 in assay [1] was 5.34.
